According to patent US20040220164A1, “Triaza compound immunoregulatory agents” (priority 2001, published 2004):
≈ marks a conversion by molar mass, not a printed value.

How the values were obtained:
Format in all cases: cell-based
CD4 [1] = target: T1, CD4 (Homo sapiens, UniProt P01730); test: CD4 down-modulation, flow cytometry with FITC-conjugated anti-CD4 (SK3) mAb, SupT1 cells; parameters: To study the effect of the CADA derivatives on surface CD4 antigen expression, MT-4 and SupT1 cells were incubated; endogenous in cells; host or cells: MT-4, SupT1, PBMC; details: for IC50: day 4, read-out: IC50 CD4 (50% inhibition of extracellular CD4 expression) (converted)
In short: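 MT-4 and SupT1 cells were exposed at 37 °C to 5-fold compound dilutions (50–0.08 μg/ml). On day 3 (MT-4) or day 4 (SupT1) they were stained with FITC anti-CD4 (SK3) for 30 min at 4 °C and analysed by flow cytometry. IC50 was derived from MFI as % of untreated control, after isotype subtraction.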

CD4 [2] = target: T1, CD4; test: CD4 down-modulation, flow cytometry with FITC-conjugated anti-CD4 (SK3) mAb, MT-4 cells; parameters: To study the effect of the CADA derivatives on surface CD4 antigen expression, MT-4 and SupT1 cells were incubated; endogenous in cells; host or cells: MT-4, SupT1, PBMC; details: for down-regulation of CD4 receptor expression / IC50: MT-4 cells; for down-regulation of CD4 receptor expression: 4 days (FIG. 5); for IC50: day 3, read-out: IC50 CD4 (50% inhibition of extracellular CD4 expression) (converted)
HHV-7 (KHR strain) = test: Anti-HHV-7 assay in SupT1 cells (antigen expression, flow cytometry, Example 3); details: SUP-T1; SupT1 cells; read-out: IC50 HHV-7 (50% reduction of HHV-7 antigen expression)
In short: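 SupT1 cells pre-incubated 30 min at room temperature with five-fold compound dilutions, then infected with HHV-7. Every 2–3 days from day 4, half the medium and cells were replaced with compound-free medium. Once microscopic CPE appeared, HHV-7 antigen expression was measured by flow cytometry.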

**Q.** How did the IC50 (CD4 [1]) turn out when `C=C1CN(S(=O)(=O)c2ccc(C)cc2)CCCN(Cc2ccccc2)CCCN(S(=O)(=O)c2ccc(C)cc2)C1` [CADA] was run?
**A.** 0.98 µM

**Q.** What about the “down-regulation of CD4 receptor expression” value (from here on “down-regulation”) (CD4 [2]; 0.08 μg/ml) of the same compound?
**A.** no inhibitory effect

**Q.** What about the “down-regulation” value (CD4 [2]; 0.4 μg/ml) of the same compound?
**A.** 58%

**Q.** And the “down-regulation” value (CD4 [2]; 2 μg/ml)?
**A.** significantly down-modulated

**Q.** And the “down-regulation” value (CD4 [2]; 10 μg/ml)?
**A.** significantly down-modulated

**Q.** What about the IC50 (CD4 [2]) of the same compound?
**A.** 0.602 µM

**Q.** And the IC50 (HHV-7 (KHR strain))?
**A.** 0.35 µg/mL (≈ 0.602 µM)

**Q.** `C=C1CN(S(=O)(=O)c2ccc(C)cc2)CCCN(CC2CCCCC2)CCCN(S(=O)(=O)c2ccc(C)cc2)C1` [QJ028] was tested. Which “selectivity index (CC50/IC50)” value (CD4 [1]) did it give?
**A.** approximately 100

**Q.** And the IC50 (CD4 [1])?
**A.** 0.425 µM

**Q.** And the “down-regulation” value (CD4 [2]; 0.4 μg/ml)?
**A.** 73%

**Q.** What about the IC50 (CD4 [2]) of the same compound?
**A.** 0.357 µM

**Q.** And the “CD4 down-regulating potency, fold more active than CADA” value (CD4 [2]; compared to CADA)?
**A.** 2 fold

**Q.** What about the IC50 (HHV-7 (KHR strain)) of the same compound?
**A.** 0.05 µg/mL (≈ 0.0851 µM)

**Q.** What does the source list for `C=C1CN(S(=O)(=O)c2ccc(C)cc2)CCCN(C(=O)OCCC)CCCN(S(=O)(=O)c2ccc(C)cc2)C1` [QJ033]?
**A.** IC50 (CD4 [1]): 3.27 µM; down-regulation of CD4 receptor expression (CD4 [2]; 0.4 μg/ml): nor significant CD4 down-regulation; down-regulation of CD4 receptor expression (CD4 [2]; 2 μg/ml): 69%; IC50 (CD4 [2]): 2.06 µM; CD4 receptor down-modulating activity, fold higher than compound 95-213 (CD4 [2]; compared to 95-213): 5 fold; IC50 (HHV-7 (KHR strain)): 0.73 µg/mL (≈ 1.26 µM)
